Results from US20220372585A1, “Sensors for Aromatic Compounds and Methods of Making and Using Same” (Washington University, priority 2021, published 2022).
pEC50: −log10 of the molar value. “Also recorded” adds a separate entry of the source. Where two headings read alike, the source gives them in different places.

Columns and labels:
[1] = tested on: wild-type TynA with A81P FeaR; assay: microbe, parasite or virus in culture; type: cell-based, E. coli MG1655; conditions: A81P FeaR; 5 h and 24 h; FIG. 25A-B
Protocol: (§1) Flow cytometry was performed as previously described. […] Cytometry data was gated by forward and side scatter.

[2] = tested on: wild-type TynA and A81L FeaR; assay: microbe, parasite or virus in culture; type: cell-based, E. coli MG1655; conditions: A81L FeaR
Protocol: as §1

[3] = tested on: G494S TynA with wild-type FeaR; type: cell-based, E. coli MG1655; conditions: G494S TynA, wild-type FeaR; 5 h and 24 h; FIG. 18A-B
Protocol: as §1

[4] = tested on: G415H TynA with wild-type FeaR; type: cell-based, E. coli MG1655; conditions: G415H
Protocol: as §1

[5] = tested on: G494S TynA with A81T FeaR; type: cell-based, E. coli MG1655; conditions: G494S*
Protocol: as §1

[6] = tested on: G494S TynA and A81S FeaR; type: cell-based, E. coli MG1655; conditions: G494S TynA and A81S FeaR; 5 h and 24 h; FIG. 23A-B
Protocol: as §1

[7] = tested on: wild-type TynA with L108T FeaR; type: cell-based, E. coli MG1655; conditions: L108T FeaR; 24 h; FIG. 28B
Protocol: as §1

[8] = tested on: wild-type TynA with W110C FeaR; type: cell-based, E. coli MG1655; conditions: W110C FeaR; 24 h; FIG. 28D
Protocol: as §1

[9] = tested on: wild-type TynA with M83Q FeaR; type: cell-based, E. coli MG1655; conditions: M83Q FeaR; 24 h; FIG. 28A
Protocol: as §1

[10] = tested on: wild-type TynA with W110S FeaR; type: cell-based, E. coli MG1655; conditions: W110S FeaR; 24 h; FIG. 28C
Protocol: as §1

[11] = tested on: wild-type TynA with A81T FeaR; type: cell-based, E. coli MG1655; conditions: wild-type TynA; 1 mM, 24 h; FIG. 21
Protocol: as §1

[12] = tested on: TynA-KP with FeaR-KA I109N; assay: GFP fluorescence from PtynA-MG with TynA-KP and FeaR-KA I109N; type: cell-based, Klebsiella aerogenes
From the text: FIG. 32. […] Sensor system with PtynA-MG, TynA-KP and FeaR-KA was chosen as the wild type (WT) for further directed evolution. TynA-KP was employed to reduce the possible interference from DA during evolution processes. Values and error bars are the average and standard deviation of biological triplicate, respectively.
FIG. 33A-FIG. 33B. […] The expression of PtynA-MG was regulated by the TynA-KP with FeaR-KA I109N mutant. Points represent experimental data while lines represent the fitted curves. […] Values and error bars are the average and standard deviation of biological triplicate, respectively.

[13] = tested on: TynA-FeaR system; assay: microbe, parasite or virus in culture; conditions: for pEC50: read-out: KA (half maximal constant); for Fmax / Fmin / n (Hill coefficient): wild-type TynA and FeaR, pCX008, pHJY022
Protocol: (§2) To develop sensors for aromatic amines, the TynA-FeaR system was first characterized in EcN. A sensor plasmid was constructed, which consisted of constitutively expressed TynA and FeaR from E. coli MG1655, and a reporter plasmid, which consisted of GFP under the control of PtynA (see e.g., FIG. 3B). […] Next, the sensitivity and selectivity to different ligands was characterized.
For fluorescence-based quantification, single colonies were transferred to 5 mL LB medium (VWR, Radnor, Pa., USA) in 14 mL round bottom tubes and incubated overnight at 250 rpm and 37° C. Unless otherwise specified, experimental cultures were prepared by diluting overnight cultures 100× into 0.6 mL M9 minimal medium supplemented with 1 mM MgSO4, […]), and 2% w/v glycerol as well as the respective ligands (DA, PEA, Tyra, and Trypta) in 2 mL 96-deep well plates. Cultures were grown for 24 h at 37° C. and 250 rpm. After 5 h and 24 h of incubation, samples were obtained from the cultures for flow cytometry analysis.
(§3) Flow cytometry was performed as previously described. Culture samples were collected and diluted to a final OD600 of ˜0.005-0.01 in 200 mL filtered phosphate-buffered saline supplemented with 2 mg/ml kanamycin in 96-well assay microplates (U-bottom, REF-353910 from BD Biosciences, San Jose, Calif., USA). The fluorescence of the samples was measured using a Millipore Guava EasyCyte High Throughput flow cytometer with a 488 nm excitation laser and 512/18 nm emission filter. Cytometry data was gated by forward and side scatter. FlowJo (TreeStar Inc.) was used to obtain the arithmetic mean of the fluorescence distribution. The averages of the arithmetic means were calculated from three biological replicates. The average fluorescence of the non-fluorescent wild-type cell was subtracted from each sample to obtain the final fluorescence (au) values (Equation 2). To obtain the relative fluorescence in FIG. 6A-FIG. 6C, fluorescence values for each variant were normalized to the fluorescence of the wild-type sensor using Equation 3.
The Hill equation (Equations 4 and 5) was used to fit lines to the fluorescence data. The model was fit to the experimentally collected data by minimizing the root mean square error (RMSE; Equation 6).

[14] = tested on: FeaR (TynA inactivated); conditions: 0.5 mM, FIG. 3C
Protocol: as §2
For fluorescence-based quantification, single colonies were transferred to 5 mL LB medium (VWR, Radnor, Pa., USA) in 14 mL round bottom tubes and incubated overnight at 250 rpm and 37° C. […]
as §3, with “Culture samples were collected and diluted to a final OD600 of ˜0.005-0.01 in 200 mL filtered phosphate-buffered saline supplemented with 2 mg/ml kanamycin in 96-well assay microplates (U-bottom, REF-353910 from BD Biosciences, San Jose, Calif., USA).” left out, “Cytometry data was gated by forward and side scatter.” left out

SMILES: NCCc1ccc(O)c(O)c1 [Dopamine, dopamine]
- response [1]: lack of response
- response ([2]; 5 h, FIG. 24): lack of response
- response ([2]; 24 h, FIG. 5C): lack of response
- response [3]: lack of response
- response ([4]; 5 h, FIG. 17B): lack of response
- response ([4]; 24 h, FIG. 4D, listed as DA): lack of response; also recorded: minimal response
- response ([5]; 5 h, FIG. 17A): lack of response
- response ([5]; 24 h, FIG. 4C): lack of response
- response [6]: lack of response
- response [7]: lack of response
- response [8]: lack of response
- response [9]: lack of response
- response [10]: lack of response
- effect of the A81T FeaR mutation on the response of the sensor [11]: significantly reduced
- response ([12]; FeaR-KA I109N, 5 h and 24 h, FIG. 33A-B): lack of response
- induction of fluorescence ([12]; I109N variant, 0.5 mM, 24 h, FIG. 32): not
- fold increase in GFP expression ([13]; 0.5 mM, in the presence of TynA, FIG. 3C): 410 fold
- pEC50 ([13]; Escherichia coli, 5 h): 4.55
- pEC50 ([13]; Escherichia coli, 24 h): 4.17
- fold induction at 1250 µM ([13]; Escherichia coli, read-out: fold induction of the reporter): ~900
- Fmax ([13]; FIG. 3D, 24 h induction): 881
- Fmin ([13]; FIG. 3D, 24 h induction): 0.1
- n (Hill coefficient) ([13]; FIG. 3D, 24 h induction): 3
- Fmax ([13]; FIG. 14, 5 h induction): 258
- Fmin ([13]; FIG. 14, 5 h induction): 4.4
- n (Hill coefficient) ([13]; FIG. 14, 5 h induction): 1.5
- induction of PtynA [14]: eliminated
